Activity calls are given as the source filed them. No cut-off for these calls is given here.
How the values were obtained:
[1] = target: T1, Human immunodeficiency virus type 1 reverse transcriptase (Human immunodeficiency virus 1, UniProt Q72547); test: Inhibition of HIV1 RT mediated RNA-dependent minus-strand DNA synthesis after 5 mins by gel-based assay
[2] = target: T1, Human immunodeficiency virus type 1 reverse transcriptase; test: Inhibition of HIV1 RT mediated DNA-dependent DNA polymerization using chimeric substrate with RNA PPT primer extended at 3' end with upto 3 deoxyribonucleotides
[3] = target: T1, Human immunodeficiency virus type 1 reverse transcriptase; test: Inhibition of HIV1 RT mediated DNA-dependent DNA polymerization using chimeric substrate with RNA PPT primer
[4] = target: T1, Human immunodeficiency virus type 1 reverse transcriptase; test: Inhibition of HIV1 RT mediated DNA-dependent DNA synthesis initiation using DNA PPT-primed substrate
[5] = Inhibition of HIV1 RT D443N mutant mediated DNA-dependent DNA polymerization using chimeric substrate with RNA PPT primer extended at 3' end with upto 2 deoxyribonucleotides; design: species or system Human immunodeficiency virus 1
[6] = target: T1, Human immunodeficiency virus type 1 reverse transcriptase; test: Inhibition of HIV1 RT mediated DNA-dependent DNA synthesis initiation using RNA PPT primed substrate by scintillation proximity assay
[7] = target: T1, Human immunodeficiency virus type 1 reverse transcriptase; test: Inhibition of HIV1 RT mediated DNA-dependent DNA polymerization using chimeric substrate with RNA PPT primer extended at 3' end with upto 9 deoxyribonucleotides
[8] = Inhibition of HIV1 RT D443N mutant mediated DNA-dependent DNA polymerization using chimeric substrate with RNA PPT primer extended at 3' end with upto 3 deoxyribonucleotides; design: species or system Human immunodeficiency virus 1
[9] = Inhibition of HIV1 RT D443N mutant mediated DNA-dependent DNA polymerization using chimeric substrate with RNA PPT primer extended at 3' end with upto one deoxyribonucleotide; design: species or system Human immunodeficiency virus 1
[10] = Inhibition of HIV1 RT D443N mutant mediated DNA-dependent DNA polymerization using chimeric substrate with RNA PPT primer extended at 3' end with upto 6 deoxyribonucleotides; design: species or system Human immunodeficiency virus 1
[11] = Inhibition of HIV1 RT D443N mutant mediated DNA-dependent DNA polymerization using chimeric substrate with RNA PPT primer extended at 3' end with upto 9 deoxyribonucleotides; design: species or system Human immunodeficiency virus 1
[12] = target: T1, Human immunodeficiency virus type 1 reverse transcriptase; test: Inhibition of HIV1 RT mediated DNA-dependent DNA polymerization
[13] = target: T1, Human immunodeficiency virus type 1 reverse transcriptase; test: Inhibition of HIV1 RT mediated DNA-dependent DNA polymerization using chimeric substrate with RNA PPT primer extended at 3' end with upto 2 deoxyribonucleotides
[14] = target: T1, Human immunodeficiency virus type 1 reverse transcriptase; test: Inhibition of HIV1 RT mediated DNA-dependent DNA polymerization using chimeric substrate with RNA PPT primer extended at 3' end with upto 12 deoxyribonucleotides
[15] = target: T2, Human immunodeficiency virus type 1 reverse transcriptase (Human immunodeficiency virus 1, UniProt Q72547, K103N); test: Inhibition of HIV1 RT K103N mutant mediated DNA-dependent DNA polymerization using DNA PPT primed substrate by scintillation proximity assay
[16] = Inhibition of HIV1 RT D443N mutant mediated DNA-dependent DNA polymerization using chimeric substrate with RNA PPT primer; design: species or system Human immunodeficiency virus 1
[17] = system: Human immunodeficiency virus 1; test: Inhibition of HIV1 RT D443N mutant mediated DNA-dependent DNA polymerization
[18] = target: T3, Human immunodeficiency virus type 1 reverse transcriptase (Human immunodeficiency virus 1, UniProt Q72547, Y181C); test: Inhibition of HIV1 RT Y181C mutant mediated DNA-dependent DNA polymerization using RNA/DNAM duplex primed substrate by scintillation proximity assay
[19] = target: T1, Human immunodeficiency virus type 1 reverse transcriptase; test: Inhibition of HIV1 RT mediated DNA-dependent DNA synthesis initiation using RNA/DNAM duplex primed substrate by scintillation proximity assay
[20] = target: T3, Human immunodeficiency virus type 1 reverse transcriptase; test: Inhibition of HIV1 RT Y181C mutant mediated DNA-dependent DNA polymerization using DNA PPT primed substrate by scintillation proximity assay
[21] = target: T2, Human immunodeficiency virus type 1 reverse transcriptase; test: Inhibition of HIV1 RT K103N mutant mediated DNA-dependent DNA polymerization using RNA/DNAM duplex primed substrate by scintillation proximity assay
[22] = target: T1, Human immunodeficiency virus type 1 reverse transcriptase; test: Inhibition of HIV1 RT mediated DNA-dependent plus-strand DNA polymerization after 5 mins by gel-based assay
[23] = target: T1, Human immunodeficiency virus type 1 reverse transcriptase; test: Inhibition of HIV1 RT mediated DNA-dependent DNA polymerization using chimeric substrate with RNA PPT primer extended at 3' end with upto one deoxyribonucleotide
[24] = target: T3, Human immunodeficiency virus type 1 reverse transcriptase; test: Inhibition of HIV1 RT Y181C mutant mediated DNA-dependent DNA polymerization using RNA PPT primed substrate by scintillation proximity assay
[25] = target: T2, Human immunodeficiency virus type 1 reverse transcriptase; test: Inhibition of HIV1 RT K103N mutant mediated DNA-dependent DNA polymerization using RNA PPT primed substrate by scintillation proximity assay
[26] = Inhibition of HIV1 RT D443N mutant mediated DNA-dependent DNA polymerization using chimeric substrate with RNA PPT primer extended at 3' end with upto 12 deoxyribonucleotides; design: species or system Human immunodeficiency virus 1

## CCc1cc(NCc2nc3c(Cl)ccc(Cl)c3o2)c(O)nc1C [L-697661]
[1]
  IC50: 1400 nM
[2]
  IC50: 270 nM
[3]
  IC50: 280 nM
[4]
  IC50: > 10000 nM
[5]
  IC50: 230 nM
[6]
  IC50: 430 nM
[7]
  IC50: 320 nM
[8]
  IC50: 240 nM
[9]
  IC50: 240 nM
[10]
  IC50: 270 nM
[11]
  IC50: 130 nM
[12]
  IC50: 290 nM
[13]
  IC50: 280 nM
[14]
  IC50: 130 nM
[15]
  IC50: > 5000 nM
[16]
  IC50: 440 nM
[17]
  Activity: inactive
[18]
  IC50: > 5000 nM
[19]
  IC50: 230 nM
[20]
  IC50: > 5000 nM
[21]
  IC50: > 5000 nM
[22]
  IC50: 35 nM
[23]
  IC50: 220 nM
[24]
  IC50: > 5000 nM
[25]
  IC50: > 5000 nM
[26]
  IC50: 150 nM

## Cc1cn([C@H]2C[C@H](N=[N+]=[N-])[C@@H](CO[P@](=O)(O)O[P@](=O)(O)OP(=O)(O)O)O2)c(=O)[nH]c1=O [ZIDOVUDINE TRIPHOSPHATE]
[6]
  IC50: 320 nM
[19]
  IC50: 360 nM

— ChEMBL document CHEMBL1156428 (J Biol Chem, 2007)
